Entries after “also recorded” stand apart in the source; their conditions may differ.
Assays:
[1] = molecular target: T1, Mg-chelatase (Arabidopsis thaliana, UniProt Q9FNB0); test: Effects of ABA on Mg-chelatase activity in isolated chloroplasts; type: biochemical; conditions: chloroplasts pre-incubated 20 min with (±)-ABA
T1 construct: isolation of intact chloroplasts from 3-week-old gl1 plants; from tissue; host or cells: intact chloroplasts from 3-week-old Arabidopsis gl1 plants
T1 sequence (Q9FNB0 50-1381): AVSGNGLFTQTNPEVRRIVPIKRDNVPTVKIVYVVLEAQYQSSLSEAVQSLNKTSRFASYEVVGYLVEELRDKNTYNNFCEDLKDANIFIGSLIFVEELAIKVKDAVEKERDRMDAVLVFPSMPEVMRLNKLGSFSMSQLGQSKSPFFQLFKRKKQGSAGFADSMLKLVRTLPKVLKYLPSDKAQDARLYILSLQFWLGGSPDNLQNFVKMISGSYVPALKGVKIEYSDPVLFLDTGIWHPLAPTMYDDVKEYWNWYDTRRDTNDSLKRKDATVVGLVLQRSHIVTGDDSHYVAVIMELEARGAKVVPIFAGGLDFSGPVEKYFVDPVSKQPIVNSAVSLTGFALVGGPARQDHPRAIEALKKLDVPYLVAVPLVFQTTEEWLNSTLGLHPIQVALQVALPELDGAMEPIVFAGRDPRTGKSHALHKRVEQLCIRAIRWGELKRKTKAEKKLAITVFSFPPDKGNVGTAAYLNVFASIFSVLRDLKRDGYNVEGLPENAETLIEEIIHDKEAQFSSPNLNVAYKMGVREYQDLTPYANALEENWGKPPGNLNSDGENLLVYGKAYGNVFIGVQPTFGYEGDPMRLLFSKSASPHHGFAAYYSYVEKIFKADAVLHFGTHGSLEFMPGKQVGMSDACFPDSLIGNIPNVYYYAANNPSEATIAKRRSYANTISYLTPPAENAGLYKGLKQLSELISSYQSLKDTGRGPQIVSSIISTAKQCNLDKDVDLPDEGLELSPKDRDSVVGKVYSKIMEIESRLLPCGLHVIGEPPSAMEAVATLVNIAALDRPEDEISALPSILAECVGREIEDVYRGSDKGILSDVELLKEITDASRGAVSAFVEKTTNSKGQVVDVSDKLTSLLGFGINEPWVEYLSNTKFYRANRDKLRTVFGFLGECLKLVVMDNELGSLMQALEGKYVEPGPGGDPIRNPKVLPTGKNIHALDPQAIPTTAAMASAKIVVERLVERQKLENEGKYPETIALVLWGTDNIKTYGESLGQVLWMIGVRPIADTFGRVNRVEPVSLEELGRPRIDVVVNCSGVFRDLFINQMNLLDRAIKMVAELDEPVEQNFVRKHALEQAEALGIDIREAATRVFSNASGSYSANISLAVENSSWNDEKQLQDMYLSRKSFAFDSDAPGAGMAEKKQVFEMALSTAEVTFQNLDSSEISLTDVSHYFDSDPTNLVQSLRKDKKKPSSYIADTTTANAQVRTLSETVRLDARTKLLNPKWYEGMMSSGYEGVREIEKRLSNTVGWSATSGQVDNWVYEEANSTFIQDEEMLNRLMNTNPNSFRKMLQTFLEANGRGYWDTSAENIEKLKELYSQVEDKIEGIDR
Experimental: For the effects of ABA on Mg-chelatase activity in vitro, isolation of intact chloroplasts from 3-week-old gl1 plants and assays of both […] and Mg-chelatase activity were done essentially according to the method of Walker and Weinstein (Walker, C. J. et al., Plant Physiol. 95:1189-1196 (1991); Walker, C. J. et al., Proc. Natl. Acad. Sci. USA 88:5789-5793 (1991)). Briefly, the purified chloroplasts with high degree of intactness were pre-incubated for 20 min in the chloroplast isolation buffer supplemented with different concentrations of (±)-ABA. For assaying Mg-chelatase activity, reactions were started by addition of the ABA-pretreated plastids and terminated by addition of ice-cold acetone. All the manipulations were performed under dim light to prevent porphyrin-mediated photooxidative damage. After centrifugation, the green supernatant was reserved and diluted with 4 ml of 75% (v/v) acetone. The fluorescence of the product was read directly in this acetone extract.

[2] = tested on: C-terminal portion of the broad bean ABAR or CHLH; test: ABA binding to yeast-expressed C-terminal fragment of broad bean ABAR; parameters: species or system Vicia faba; conditions: data not shown
Text: So we designated it ABAR (for putative abscisic acid receptor). On the basis of the sequencing information, we isolated from broad bean leaves a complementary DNA fragment encoding the carboxy-terminal half of about 770 amino acids of the putative H subunit (CHLH) of the magnesium-protoporphyrin-IX chelatase (Mg-chelatase). CHLH has been reported to have multiple functions in plant cells. In addition to its enzymatic functions as a subunit of the Mg-chelatase in producing photosynthetic apparatus (Walker, C. J. et al., Biochem. J. 327:321-333 (1997)), CHLH has a key function in mediating plastid-to-nucleus signaling (Mochizuki, N. et al., Proc. Natl. Acad. Sci. USA 98:2053-2058 (2001); Surpin, M., et al., Plant Cell S327-S338 (2002); Strand, A., et al., Nature 421:79-83 (2003); Nott, A. et al., Annu. Rev. Plant Biol. 57:730-759 (2006)). […] The information from Vicia faba led us to analyse the functions of ABAR in ABA signalling in Arabidopsis thaliana.

How did the Mg-chelatase activity [1] turn out when `CC1=CC(=O)CC(C)(C)C1(O)/C=C/C(C)=C\C(=O)O` (centres unmarked) [ABA, abscisic acid] was run?
The Mg-chelatase activity was “stimulated; also recorded: enhances”.

What about the ABA binding [2] of the same compound?
Its ABA binding is “binds ABA specifically”.
